In patent US6479487B1, “6, 9-disubstituted 2-[trans-(4-aminocyclohexyl)amino] purines” (Aventis Pharmaceuticals Inc., priority 1998, dated 2002):
“And” between values parts separate entries of the source, which are not always exact repeats. Equal values may be shown once. Where a name gives a salt, the structure may show the parent alone. Read-outs that look alike come from different tables or passages of the source.

Tests used:
A549 = test: In vitro tumor cell proliferation, A549; type: cell-based, human; conditions: many values given with an undefined *, read-out: In vitro Tumor Cell Proliferation (IC50, μM) Lung A549
Outline: (§1)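 SRB read-out: cells seeded overnight, 37° C; drug 3 d, medium plus fresh drug replaced, +4 d; TCA fix 60 min 4° C, 0.4% SRB stain 30 min. Alt. CyQUANT: drug 3 d, plates frozen −80° C before read.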

Colo-205 = test: In vitro tumor cell proliferation, Colo-205; type: cell-based; conditions: values given with an undefined *, read-out: In vitro Tumor Cell Proliferation (IC50, μM) Colon Colo-205
Outline: as §1

cdk4/cyclin D1 = biological target: T1, cdk4/cyclin D1 (Homo sapiens, UniProt P11802); test: Cyclin-dependent Kinase 4 Assay (cdk4/cyclin D1, GST-Rb substrate); type: biochemical; conditions: cdk4/cyclin D1 insect cell lysate, 10 μM ATP, 30 min at 37° C., several values = separate determinations, read-out: CDK4 Inhibition IC50
T1 construct: made in house; host or cells: Sf9 insect cells (Bac-to-Bac baculovirus, pFastBac)
T1 sequence (P11802 whole entry): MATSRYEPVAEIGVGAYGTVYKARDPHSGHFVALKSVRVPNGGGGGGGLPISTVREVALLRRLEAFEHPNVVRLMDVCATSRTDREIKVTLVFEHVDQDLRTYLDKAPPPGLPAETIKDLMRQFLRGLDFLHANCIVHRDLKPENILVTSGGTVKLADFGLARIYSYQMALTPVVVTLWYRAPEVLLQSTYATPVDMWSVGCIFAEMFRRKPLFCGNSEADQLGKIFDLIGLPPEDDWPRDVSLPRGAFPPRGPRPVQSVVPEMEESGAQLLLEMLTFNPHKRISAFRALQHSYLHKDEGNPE
T1 sequence (P24385 whole entry partner): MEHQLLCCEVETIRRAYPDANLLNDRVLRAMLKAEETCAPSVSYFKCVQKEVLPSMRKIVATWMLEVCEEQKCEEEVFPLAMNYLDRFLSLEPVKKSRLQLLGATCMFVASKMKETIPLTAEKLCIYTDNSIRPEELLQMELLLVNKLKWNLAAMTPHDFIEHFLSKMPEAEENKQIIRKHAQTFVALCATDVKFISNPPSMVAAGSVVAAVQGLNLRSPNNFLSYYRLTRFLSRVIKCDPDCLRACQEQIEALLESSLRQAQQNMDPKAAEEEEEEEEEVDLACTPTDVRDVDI
Outline: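 Insect-cell lysate of coexpressed cdk4/cyclin D1 (0.1 μg) acts on GST-Rb (0.5 μg) bound to glutathione-Sepharose, in 50 mM HEPES pH 7.5, 10 mM MgCl2, 1 mM EGTA. Reaction runs 30 min at 37 °C, then is stopped by filtration and TNEN washes. Rb phosphorylation read by scintillation counting; IC50 derived.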

MDA-MB-231 = test: In vitro tumor cell proliferation, MDA-MB-231; type: cell-based, human; conditions: sulforhodamine B or CyQUANT assay, many values given with an undefined *, read-out: In vitro Tumor Cell Proliferation (IC50, μM) Breast MDA-MB-231
Outline: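 Cells plated overnight at 37 °C, then exposed to drug for 3 days, refed with fresh drug and incubated 4 more days. Read-out by sulforhodamine B staining after TCA fixation; alternatively, CyQUANT after 3-day drug exposure and freezing at −80 °C.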

DU145 = test: In vitro tumor cell proliferation, DU145; type: cell-based, human; conditions: many values given with an undefined *, read-out: In vitro Tumor Cell Proliferation (IC50, μM) Prostate DU145
Outline: as §1

cdk2/cyclin E = biological target: T2, cdk2/cyclin E (Homo sapiens, UniProt P24941); test: Cyclin-Dependent Kinase 2 Assay (cdk2/cyclin E, GST-Rb substrate); type: biochemical; conditions: recombinant cdk2/cyclin E, 10 μM ATP, 30 min at 30° C., several values in a cell = separate determinations, read-out: CDK-2 Inhibition IC50
T2 construct: made in house; host or cells: insect cells (baculovirus co-infection)
Method: Substrate: GST-Rb as described above for cdk4/cyclin D1
Assay conditions for cdk2/cyclin E were identical to those for cdk4/cyclin D1 including the substrate. The concentration of recombinant cdk2/cyclin E in the assay was 0.1 μg per 100 μl assay. Incubation was for 30 min at 30° C.

PC-3 = test: In vitro tumor cell proliferation, PC-3; type: cell-based, human; conditions: many values given with an undefined *, read-out: In vitro Tumor Cell Proliferation (IC50, μM) Prostate PC-3
Outline: as §1

HT-29 = test: In vitro tumor cell proliferation, HT-29; type: cell-based, human; conditions: many values given with an undefined *, read-out: In vitro Tumor Cell Proliferation (IC50, μM) Colon HT-29
Outline: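 HT-29 cells seeded overnight at 37° C, then exposed to drug for 3 days, refed with fresh drug-containing medium for 4 more days. Proliferation read by sulforhodamine B staining after TCA fixation; alternatively by CyQUANT after freezing plates at −80° C following 3 days' drug exposure.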

DMS-114 = test: In vitro tumor cell proliferation, DMS-114; type: cell-based, human; conditions: many values given with an undefined *, read-out: In vitro Tumor Cell Proliferation (IC50, μM) Lung DMS-114
Outline: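 Human small cell lung carcinoma DMS-114 cells plated overnight, then drug-treated for 3 days, medium and drug renewed, and incubated 4 more days. Growth read by sulforhodamine B staining after TCA fixation; alternatively by CyQUANT after 3 days' drug exposure and freezing at −80 °C.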

MDA-MB-435 = test: In vitro tumor cell proliferation, MDA-MB-435; type: cell-based; conditions: values given with an undefined *, read-out: In vitro Tumor Cell Proliferation (IC50, μM) Breast MDA-MB-435
Outline: as §1

[1] = Homo sapiens, COLO 205, Colo-205
[2] = Homo sapiens, MDA-MB-435, MDA-MB-435
[3] = Homo sapiens, MDA-MB-231, MDA-MB-231

| SMILES | IC50 (A549; Homo sapiens, A549, A549) | IC50 (Colo-205; Colo-205, trihydrochloride) | IC50 (Colo-205; [1]) | IC50 (cdk4/cyclin D1) | IC50 (MDA-MB-231; MDA-MB-231, trihydrochloride) | IC50 (DU145; DU145, trihydrochloride) | IC50 (DU145; Homo sapiens, DU-145, DU145) | IC50 (cdk2/cyclin E) | IC50 (PC-3; Homo sapiens, PC-3, PC-3) | IC50 (PC-3; PC-3, trihydrochloride) | IC50 (HT-29; HT-29, trihydrochloride) | IC50 (HT-29; Homo sapiens, HT-29, HT-29) | IC50 (DMS-114; DMS-114, trihydrochloride) | IC50 (DMS-114; Homo sapiens, DMS-114, DMS-114) | IC50 (MDA-MB-435; [2]) | IC50 (MDA-MB-435; MDA-MB-435, trihydrochloride) | IC50 (A549; A549, trihydrochloride) | IC50 (MDA-MB-231; [3]) | IC50 (cdk4/cyclin D1; trihydrochloride) | IC50 (cdk2/cyclin E; trihydrochloride) |
| --- | --- | --- | --- | --- | --- | --- | --- | --- | --- | --- | --- | --- | --- | --- | --- | --- | --- | --- | --- | --- |
| N[C@H]1CC[C@H](Nc2nc(NC3CCN(Cc4cc(Cl)ccc4Cl)CC3)c3ncn(C4CCCC4)c3n2)CC1 [Example 147-r, 2-[Trans-(4-aminocyclohexyl)amino]-6-[4-[1-(2,5-dichlorobenzyl)]piperidinylamino]-9-cyclopentylpurine trihydrochloride] | 0.33 µM | 0.38 µM | 0.32 µM | 7200 nM and 4300 nM | 0.48 µM | 0.4 µM | 0.45 µM | 90 nM and 580 nM and 550 nM and 610 nM | 0.39 µM | 0.55 µM | 0.47 µM | 0.49 µM | 0.48 µM | 0.62 µM | 0.6 µM | 0.65 µM |  |  |  |  |
| N[C@H]1CC[C@H](Nc2nc(NC3CCN(CC4CCCCC4)CC3)c3ncn(C4CCCC4)c3n2)CC1 [Example 147-s, 2-[Trans-(4-aminocyclohexyl)amino]-6-[4-(1-cyclohexylmethyl)piperidinylamino]-9-cyclopentylpurine trihydrochloride] | 0.22 µM | 0.23 µM | 0.28 µM | 1300 nM and 620 nM | 0.33 µM | 0.27 µM | 0.29 µM | 120 nM and 100 nM |  | 0.37 µM | 0.33 µM | 0.35 µM | 0.3 µM | 0.57 µM | 0.42 µM | 0.43 µM | 0.2 µM |  |  |  |
| N[C@H]1CC[C@H](Nc2nc(NC3CCN(Cc4ccc(F)cc4Cl)CC3)c3ncn(C4CCCC4)c3n2)CC1 [Example 147-t, 2-[Trans-(4-aminocyclohexyl)amino]-6-[4-[1-(2-chloro-4-fluorobenzyl)]piperidinylamino]-9-cyclopentylpurine trihydrochloride] | 0.3 µM | 0.36 µM |  | 2200 nM and 1700 nM |  | 0.38 µM | 0.33 µM | 250 nM and 160 nM and 340 nM | 0.37 µM | 0.45 µM | 0.48 µM | 0.42 µM | 0.46 µM | 0.71 µM | 0.41 µM | 0.69 µM | 0.28 µM | 0.37 µM |  |  |
| N[C@H]1CC[C@H](Nc2nc(NC3CCN(Cc4ccc(F)c(F)c4)CC3)c3ncn(C4CCCC4)c3n2)CC1 [Example 147-u, 2-[Trans-(4-aminocyclohexyl)amino]-6-[4-[1-(3,4-difluorobenzyl)]piperidinylamino]-9-cyclopentylpurine trihydrochloride] | 0.27 µM | 0.22 µM | 0.28 µM | 2800 nM and 2600 nM | 0.36 µM | 0.28 µM | 0.38 µM | 150 nM and 110 nM | 0.35 µM | 0.43 µM | 0.33 µM | 0.41 µM | 0.35 µM | 0.62 µM | 0.47 µM | 0.48 µM | 0.19 µM | 0.33 µM |  |  |

The next lines start with the values.

| IC50 (A549; Homo sapiens, A549, A549) | IC50 (Colo-205; Colo-205, trihydrochloride) | IC50 (Colo-205; [1]) | IC50 (cdk4/cyclin D1) | IC50 (MDA-MB-231; MDA-MB-231, trihydrochloride) | IC50 (DU145; DU145, trihydrochloride) | IC50 (DU145; Homo sapiens, DU-145, DU145) | IC50 (cdk2/cyclin E) | IC50 (PC-3; Homo sapiens, PC-3, PC-3) | IC50 (PC-3; PC-3, trihydrochloride) | IC50 (HT-29; HT-29, trihydrochloride) | IC50 (HT-29; Homo sapiens, HT-29, HT-29) | IC50 (DMS-114; DMS-114, trihydrochloride) | IC50 (DMS-114; Homo sapiens, DMS-114, DMS-114) | IC50 (MDA-MB-435; [2]) | IC50 (MDA-MB-435; MDA-MB-435, trihydrochloride) | IC50 (A549; A549, trihydrochloride) | IC50 (MDA-MB-231; [3]) | IC50 (cdk4/cyclin D1; trihydrochloride) | IC50 (cdk2/cyclin E; trihydrochloride) | SMILES |
| --- | --- | --- | --- | --- | --- | --- | --- | --- | --- | --- | --- | --- | --- | --- | --- | --- | --- | --- | --- | --- |
| 0.5 µM | 0.77 µM | 0.58 µM | 2000 nM and 3400 nM | 1.2 µM | 0.57 µM | 0.52 µM | 240 nM | 0.85 µM | 1.1 µM | 0.83 µM | 0.76 µM | 1.1 µM | 1.9 µM | 1 µM | 1.3 µM | 0.63 µM | 0.63 µM |  |  | N[C@H]1CC[C@H](Nc2nc(NC3CCN(Cc4c(F)cccc4F)CC3)c3ncn(C4CCCC4)c3n2)CC1 [Example 147-v, 2-[Trans-(4-aminocyclohexyl)amino]-6-[4-[1-(2,6-difluorobenzyl)]piperidinylamino]-9-cyclopentylpurine trihydrochloride] |
| 0.21 µM |  | 0.32 µM | 4000 nM and 2100 nM | 0.4 µM | 0.39 µM | 0.35 µM | 130 nM and 180 nM | 0.44 µM | 0.46 µM | 0.39 µM | 0.37 µM |  | 0.45 µM | 0.57 µM | 0.51 µM |  | 0.35 µM |  |  | N[C@H]1CC[C@H](Nc2nc(NC3CCN(Cc4cc(Cl)cc(Cl)c4)CC3)c3ncn(C4CCCC4)c3n2)CC1 [Example 147-w, 2-[Trans-(4-aminocyclohexyl)amino]-6-[4-[1-(3,5-dichlorobenzyl)]piperidinylamino]-9-cyclopentylpurine trihydrochloride] |
| 0.44 µM | 0.62 µM | 0.59 µM | 3800 nM and 3900 nM | 0.67 µM | 0.53 µM | 0.49 µM | 320 nM | 0.54 µM | 0.65 µM | 0.6 µM | 0.72 µM | 0.7 µM | 1 µM | 0.75 µM | 0.92 µM | 0.45 µM | 0.85 µM |  |  | N[C@H]1CC[C@H](Nc2nc(NC3CCN(Cc4ccc(Cl)cc4Cl)CC3)c3ncn(C4CCCC4)c3n2)CC1 [Example 147-x, 2-[Trans-(4-aminocyclohexyl)amino]-6-[4-[1-(2,4-dichlorobenzyl)]piperidinylamino]-9-cyclopentylpurine trihydrochloride] |
|  | 0.32 µM and 0.35 µM |  |  | 0.34 µM and 0.35 µM | 0.33 µM and 0.35 µM |  |  |  | 0.35 µM and 0.46 µM | 0.41 µM and 0.38 µM |  | 0.4 µM and 0.45 µM |  |  | 0.47 µM and 0.55 µM | 0.16 µM and 0.29 µM |  | 5400 nM and 4800 nM | 510 nM and 670 nM | Cc1ccc(CN2CCC(Nc3nc(N[C@H]4CC[C@H](N)CC4)nc4c3ncn4C3CCCC3)CC2)cc1Cl [Example 147-y, 2-[Trans-(4-aminocyclohexyl)amino]-6-[4-[1-(3-chloro-4-methylbenzyl)]piperidinylamino]-9-cyclopentylpurine trihydrochloride] |
|  | 0.38 µM and 0.46 µM |  |  | 0.37 µM and 0.35 µM | 0.28 µM and 0.36 µM |  |  |  | 0.33 µM and 0.44 µM | 0.43 µM and 0.44 µM |  | 0.34 µM and 0.42 µM |  |  | 0.5 µM and 0.57 µM | 0.18 µM and 0.3 µM |  | 7900 nM and 5700 nM | 720 nM and 1000 nM | N[C@H]1CC[C@H](Nc2nc(NC3CCN(Cc4ccc(OC(F)(F)F)cc4)CC3)c3ncn(C4CCCC4)c3n2)CC1 [Example 147-z, 2-[Trans-(4-aminocyclohexyl)amino]-6-[4-[1-(4-trifluoromethoxybenzyl)]piperidinylamino]-9-cyclopentylpurine trihydrochloride] |
